How the values were obtained:
Gal4-RORγ-LBD = biological target: T1, Gal4-RORγ-LBD (Homo sapiens, UniProt P51449); assay: Gal4-RORγ Luciferase Reporter Assay in HEK-293T Cells; assay type: cell-based; details: HEK-293 cells, luciferase reporter, with ursolic acid
T1 construct: expressed in transfected cells
T1 sequence (P51449 269-508 limits assumed): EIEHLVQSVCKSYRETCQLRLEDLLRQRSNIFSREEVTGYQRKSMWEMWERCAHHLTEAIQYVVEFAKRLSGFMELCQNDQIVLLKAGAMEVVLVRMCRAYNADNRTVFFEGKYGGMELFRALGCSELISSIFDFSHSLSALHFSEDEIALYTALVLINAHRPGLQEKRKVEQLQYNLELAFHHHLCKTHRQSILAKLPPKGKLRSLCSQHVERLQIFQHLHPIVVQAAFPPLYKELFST
Procedure, shortened: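 HEK-293 cells were co-transfected with Gal4-RORγ-LBD and a Gal4-luciferase reporter, then exposed overnight at 37 °C to compounds with […] ursolic acid present (0.2% DMSO). Luminescence was read with One-Glo after 10 min at RT, untreated signal was set as 100, and Max Response was taken as the upper plateau of a 4-parameter logistic fit.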

RORγ-LBD = biological target: T2, RORγ-LBD (Homo sapiens, UniProt P51449); assay: RORγ-Ligand Binding Domain (LBD) TR-FRET Assay; assay type: biochemical; details: RORγ-LBD TR-FRET
T2 construct: made in house; host or cells: SF9 cells (baculovirus); used as diluted lysate
T2 sequence (P51449 269-508 limits assumed): T1 sequence (P51449 269-508 limits assumed)
Procedure, shortened: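 This TR-FRET coactivator assay pairs baculovirus-expressed His-RORγ-LBD (~3 nM final) with biotin-SRC1 LXXLL peptide at 200 nM final in pH 7.0 Tris/KCl/EDTA/DTT/BSA buffer.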

O=C(O)CC[C@H]1CN(S(=O)(=O)c2cccc(C(F)(F)F)c2)c2cc(/C=C3\CCOc4ccccc43)ccc2O1 [Example 38B, (S,E)-3-(6-(chroman-4-ylidenemethyl)-4-((3-(trifluoromethyl)-phenyl)sulfonyl)-3,4-dihydro-2H-benzo[b][1,4]oxazin-2-yl)propanoic acid]
EC50 (Gal4-RORγ-LBD): 500 to 5000 nM | EC50 (RORγ-LBD): < 500 nM

COC(=O)CC[C@H]1CN(S(=O)(=O)c2cccc(C(F)(F)F)c2)c2cc(/C=C(\C)c3c(F)cccc3Cl)c(F)cc2O1 [Example 41, (S,E)-Methyl 3-(6-(2-(2-chloro-6-fluorophenyl)prop-1-en-1-yl)-7-fluoro-4-((3-(trifluoromethyl)phenyl)sulfonyl)-3,4-dihydro-2H-benzo[b][1,4]oxazin-2-yl)propanoate]
EC50 (Gal4-RORγ-LBD): < 500 nM | EC50 (RORγ-LBD): < 500 nM

C/C(=C\c1cc2c(cc1F)O[C@@H](CCC(=O)O)CN2S(=O)(=O)c1cccc(C(F)(F)F)c1)c1c(F)cccc1Cl [Example 42, (S,E)-3-(6-(2-(2-Chloro-6-fluorophenyl)prop-1-en-1-yl)-7-fluoro-4-((3-(trifluoromethyl)phenyl)sulfonyl)-3,4-dihydro-2H-benzo[b][1,4]oxazin-2-yl)propanoic acid]
EC50 (Gal4-RORγ-LBD): 500 to 5000 nM | EC50 (RORγ-LBD): < 500 nM

COC(=O)CC[C@H]1CN(S(=O)(=O)c2cccc(OC(F)F)c2)c2cc(/C=C(\C)c3c(F)cccc3Cl)c(F)cc2O1 [Example 43, (S,E)-Methyl 3-(6-(2-(2-chloro-6-fluorophenyl)prop-1-en-1-yl)-4-((3-(difluoromethoxy)phenyl)sulfonyl)-7-fluoro-3,4-dihydro-2H-benzo[b][1,4]oxazin-2-yl)propanoate]
EC50 (Gal4-RORγ-LBD): < 500 nM | EC50 (RORγ-LBD): < 500 nM

C/C(=C\c1cc2c(cc1F)O[C@@H](CCC(=O)O)CN2S(=O)(=O)c1cccc(OC(F)F)c1)c1c(F)cccc1Cl [Example 44, (S,E)-3-(6-(2-(2-Chloro-6-fluorophenyl)prop-1-en-1-yl)-4-((3-(difluoromethoxy)phenyl)sulfonyl)-7-fluoro-3,4-dihydro-2H-benzo[b][1,4]oxazin-2-yl)propanoic acid]
EC50 (Gal4-RORγ-LBD): 500 to 5000 nM | EC50 (RORγ-LBD): < 500 nM

COC(=O)CC[C@H]1CN(S(=O)(=O)c2cccc(C(F)(F)F)c2)c2cc(/C=C(\C)c3c(F)cccc3Cl)c(Cl)cc2O1 [Example 45, (S,E)-Methyl 3-(7-chloro-6-(2-(2-chloro-6-fluorophenyl)prop-1-en-1-yl)-4-((3-(trifluoromethyl)phenyl)sulfonyl)-3,4-dihydro-2H-benzo[b][1,4]oxazin-2-yl)propanoate]
EC50 (Gal4-RORγ-LBD): 500 to 5000 nM | EC50 (RORγ-LBD): < 500 nM

C/C(=C\c1cc2c(cc1Cl)O[C@@H](CCC(=O)O)CN2S(=O)(=O)c1cccc(C(F)(F)F)c1)c1c(F)cccc1Cl [Example 46, (S,E)-3-(7-Chloro-6-(2-(2-chloro-6-fluorophenyl)prop-1-en-1-yl)-4-((3-(trifluoromethyl)phenyl)sulfonyl)-3,4-dihydro-2H-benzo[b][1,4]oxazin-2-yl)propanoic acid]
EC50 (Gal4-RORγ-LBD): < 500 nM | EC50 (RORγ-LBD): < 500 nM

COC(=O)CC[C@H]1CN(S(=O)(=O)c2cccc(OC(F)F)c2)c2cc(/C=C(\C)c3c(F)cccc3Cl)c(Cl)cc2O1 [Example 47, (S,E)-Methyl 3-(6-(2-(2-chloro-6-fluorophenyl)prop-1-en-1-yl)-4-((3-(difluoromethoxy)phenyl)sulfonyl)-7-chloro-3,4-dihydro-2H-benzo[b][1,4]oxazin-2-yl)propanoate]
EC50 (Gal4-RORγ-LBD): 5000 to 10000 nM | EC50 (RORγ-LBD): < 500 nM

C/C(=C\c1cc2c(cc1Cl)O[C@@H](CCC(=O)O)CN2S(=O)(=O)c1cccc(OC(F)F)c1)c1c(F)cccc1Cl [Example 48, (S,E)-3-(6-(2-(2-Chloro-6-fluorophenyl)prop-1-en-1-yl)-4-((3-(difluoromethoxy)phenyl)sulfonyl)-7-chloro-3,4-dihydro-2H-benzo[b][1,4]oxazin-2-yl)propanoate]
EC50 (Gal4-RORγ-LBD): < 500 nM | EC50 (RORγ-LBD): 500 to 5000 nM

Source: US9896441B2 (Lycera Corporation, priority 2014, dated 2018)
